Converted amounts (≈) assume the structure as drawn. Structures can show the parent of a compound that is named as a salt.
Columns and labels:
Assay type in all cases: cell-based
[1] = tested on: Staphylococcus aureus 209P; test: MIC against Staphylococcus aureus 209P
[2] = tested on: Bucillus subtilis PCI 219; test: MIC against Bucillus subtilis PCI 219
Escherichia coli NIHJ = test: MIC against Escherichia coli NIHJ
Sarcina lutea PCI 1001 = test: MIC against Sarcina lutea PCI 1001; details: Micrococcus luteus, PCI1001
Proteus vulgaris Eb51 = test: MIC against Proteus vulgaris Eb51
Proteus mirabilis Eb59 = test: MIC against Proteus mirabilis Eb59
[3] = tested on: Staphylococcus aureus No. 87; test: MIC against Staphylococcus aureus No. 87
Klebsiella pneumoniae = test: MIC against Klebsiella pneumoniae
[4] = tested on: Staphylococcus aureus 1840; test: MIC against Staphylococcus aureus 1840
Proteus vulgaris = test: MIC against Proteus vulgaris (strain not given)
Proteus morganii Eb53 = test: MIC against Proteus morganii Eb53; details: Morganella morganii

SMILES | MIC [1] [µg/mL] | MIC [2] [µg/mL] | MIC (Escherichia coli NIHJ) [µg/mL] | MIC (Sarcina lutea PCI 1001) [µg/mL] | MIC (Proteus vulgaris Eb51) [µg/mL] | MIC (Proteus mirabilis Eb59) [µg/mL] | MIC [3] [µg/mL] | MIC (Klebsiella pneumoniae) [µg/mL] | MIC [4] [µg/mL] | MIC (Proteus vulgaris) [µg/mL] | MIC (Proteus morganii Eb53) [µg/mL]
Cc1ccc(SCC2=C(C(=O)O)N3C(=O)C(NC(=O)[C@H](O)c4ccccc4)C3SC2)n[n+]1[O-] (single isomer, unassigned) [Example 1, 7-[D-(-)-mandelamido]-3-[6'-(3'-methylpyridazinyl)thiomethyl] -3-cephem-4-carboxylic acid 2'-oxide sodium salt] | 0.1 | < 0.01 | 0.5 | 0.2 | 1 | 5 | 5 | – | – | – | –
COc1ccc(SCC2=C(C(=O)O)N3C(=O)C(NC(=O)[C@H](O)c4ccccc4)C3SC2)[n+]([O-])n1 (single isomer, unassigned) [Example 6, 7-[D-(-)-mandelamido]-3-[6'-(3'-methoxypyridazinyl)thiomethyl]-3-cephem-4-carboxylic acid 1'-oxide sodium salt] | < 0.78 | – | 1.56 | – | – | – | – | 1.56 | 1.56 | – | –
O=C(O)C1=C(CSc2ccc(Cl)n[n+]2[O-])CSC2C(NC(=O)[C@H](O)c3ccccc3)C(=O)N12 (single isomer, unassigned) [Example 7, 7-[D-(-)-mandelamido]-3-[6'-(3'-chloropyridazinyl)thiomethyl]-3-cephem-4-carboxylic acid 1'-oxide sodium salt] | < 0.78 | – | 1.56 | – | – | – | – | < 0.78 | < 1.56 | 3.12 | 25
Cc1ccc(SCC2=C(C(=O)O)N3C(=O)C(NC(=O)C[n+]4cc([O-])on4)C3SC2)n[n+]1[O-] (stereo not shown) [Example 11, 7-[2'-(3'-sydnone)acetamido]-3-[6"-(3"-methylpyridazinyl)thiomethyl]-3-cephem-4-carboxylic acid 2"-oxide] | < 0.78 | – | 1.56 (≈ 3.25 µM) | – | – | – | – | 1.56 (≈ 3.25 µM) | 1.56 (≈ 3.25 µM) | – | –
O=C(C[n+]1cc([O-])on1)NC1C(=O)N2C(C(=O)O)=C(CSc3ccc(Cl)n[n+]3[O-])CSC12 (stereo not shown) [Example 12, 7-[2'-(3'-sydnone)acetamido]-3[6"-(3"-chloropyridazinyl)-thiomethyl]-3-cephem-4-carboxylic acid 1"-oxide sodium salt] | < 0.78 | – | 1.56 | – | – | – | – | 1.56 | 1.56 | – | –
COc1ccc(SCC2=C(C(=O)O)N3C(=O)C(NC(=O)C[n+]4cc([O-])on4)C3SC2)[n+]([O-])n1 (stereo not shown) [Example 13, 7-[2'-(3'-sydnone)acetamido]-3-[6"-(3"-methoxypyridazinyl)thiomethyl]-3-cephem-4-carboxylic acid 1"-oxide sodium salt] | < 0.78 | – | – | – | – | – | – | 1.56 | 1.56 | – | –
